Several values for one entry are separate records, joined by “and”; a condition that tells them apart may be missing. Equal values may be shown once.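 Protocol summary: plate cells (96-well), add compound at 5 concentrations, incubate 48 h, interpolate endpoints linearly. Here, GI50 denotes the concentration required for 50% inhibition of growth. TGI: total growth inhibition.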 Square brackets hold non-standard residues; d marks the D form. Peptide text beside a SMILES is read from it. Phe(4-NO2) = N[CH](Cc1ccc([N+](=O)[O-])cc1)C(=O)O
Columns and labels:
Assay in all cases: growth of human tumour cells (NCI), 48 h
[1] = test system: DU-145 prostate
[2] = test system: HCT-116 colon
[3] = test system: HT29 colon
[4] = test system: IGROV1 ovarian
[5] = test system: LOX IMVI melanoma
[6] = test system: MDA-MB-435
[7] = test system: OVCAR-5 ovarian
[8] = test system: OVCAR-8 ovarian
[9] = test system: SK-MEL-2 melanoma
[10] = test system: SN12C renal
[11] = test system: SR leukemia
[12] = test system: SW-620 colon
[13] = test system: UACC-62 melanoma
[14] = test system: UO-31 renal

Structure (SMILES)	TGI [1]	TGI [2] [µM]	TGI [3]	TGI [4]	TGI [5] [µM]	TGI [6] [µM]	TGI [7] [µM]	TGI [8] [µM]	TGI [9] [µM]	TGI [10]	TGI [11]	TGI [12]	TGI [13]	TGI [14] [µM]	GI50 [5]	GI50 [9]	GI50 [14] [µM]
CCN(CCCl)c1cc(CN(C)C)cc(NC(=O)c2ccc(C(=O)Nc3ccccc3)cc2)c1	6.92 µM	11.5	0.414 µM	0.448 µM	0.634	0.613	4.5	6.34	0.519	5.21 µM	1.16 µM	0.339 µM	4.03 µM	4.4			
CNC(=O)OCC1=C(COC(=O)NC)C(C)N(c2ccccc2)C1 (stereo not drawn)	> 100 µM	> 100	53.7 µM	98.4 µM	> 100	96.4	91.9	> 100	70.6	> 100 µM	67.4 µM	> 100 µM	68.8 µM	> 100			
COc1cc2c3cc1Oc1c(OC)c(OC)cc4c1C(Cc1ccc(O)c(c1)-c1cc(ccc1OC)CC3N(C)CC2)N(C)CC4 (stereo not drawn)	> 100 µM	> 100	50.4 µM	63.7 µM	83	61.5	> 100	46.3	43	42.7 µM	28.4 µM	> 100 µM	57.2 µM	29.2			
COC1C(OC(C)=O)CC(=O)OC(C)C/C=C/C=C\C(O)C(C)CC(CC=O)C1OC1OC(C)C(OC2CC(C)(O)C(OC(=O)CC(C)C)C(C)O2)C(N(C)C)C1O (stereo not drawn)	> 100 µM	> 100	> 100 µM	> 100 µM	> 100	> 100	> 100	> 100	> 100	> 100 µM	69 µM and 38.7 µM	> 100 µM	> 100 µM	> 100	41.4 µM and > 100 µM		
COC(=O)C1SC[C@H]2C(=O)N(c3ccccc3)C(=O)N12 (stereo partly drawn)	> 100 µM	> 100	> 100 µM	> 100 µM	> 100	> 100	> 100	> 100	> 100	> 100 µM	> 100 µM	> 100 µM	> 100 µM	> 100			
NC(Cc1ccc(O)cn1)C(=O)O (stereo not drawn)	> 100 µM	> 100	> 100 µM	> 100 µM	> 100	> 100	> 100	> 100		> 100 µM	> 100 µM	> 100 µM		> 100			
Cc1ccc(N2C3=C(CC4=C2CC(C)(C)CC4=O)C(=O)CC(C)(C)C3)cc1	> 100 µM	> 100	> 100 µM	> 100 µM	> 100	> 100	> 100	> 100		> 100 µM	> 100 µM	> 100 µM	> 100 µM	> 100			
CN(C)c1c(C2CC(O)C(CO)O2)c(=O)c1=O (stereo not drawn)	> 100 µM	> 100	> 100 µM	> 100 µM	> 100	> 100	> 100	> 100	> 100	> 100 µM	> 100 µM	> 100 µM	> 100 µM	> 100			
COC(=O)[C@]1(Cc2ccc3ccccc3c2)CCCCCCN1C(=O)c1ccccc1	> 68.1 µM	> 44.1	> 45.2 µM	> 58.2 µM	30.3	> 53.1	> 65	> 48.5	25.9	> 51.5 µM	> 100 µM	> 60.3 µM	> 51.3 µM	> 39.9			
NS(=O)(=O)c1ccc(N2C(=O)C(=O)N(c3ccccc3)C2=S)cc1	> 100 µM	> 100	> 100 µM	> 100 µM	> 100	> 100	> 100	> 100	> 100	> 100 µM	> 100 µM	> 100 µM	> 100 µM	> 100			
COC(=O)CCC(NC(=O)C(CCC(=O)OC)NC(=O)C(CCC(=O)OC)NC(=O)C(CCC(=O)OC)NC(=O)C(CCC(=O)OC)NC(=O)C(Cc1ccc([N+](=O)[O-])cc1)NC(=O)C(CCC(=O)OC)NC(=O)C(CCC(=O)OC)NC(=O)C(CCC(=O)OC)NC(=O)C(CCC(=O)OC)NC(=O)C(CCC(=O)OC)NC(C)=O)C(N)=O (stereo not drawn) (Ac-E(OMe)E(OMe)E(OMe)E(OMe)E(OMe)[Phe(4-NO2)]E(OMe)E(OMe)E(OMe)E(OMe)E(OMe)-NH2; configuration not given here)	> 100 µM	> 100	> 100 µM	> 100 µM	> 100	> 100	> 100	> 100	> 100	> 100 µM	> 100 µM	> 100 µM		> 100			
COc1ncc(C#CC(=O)c2ccccc2)c(OC)n1	19.7 µM	10.1	5.07 µM	7.49 µM	3	11.5	12.8	8.72	13.4	2.78 µM	4.68 µM	4.84 µM	8.78 µM	5.44			
CCOC(OCC)[C@H](N)[C@@H](O)[C@@H](O)[C@H]1COC(C)(C)O1	> 100 µM	> 100	> 100 µM	> 100 µM	> 100	> 100	> 100	> 100	> 100	> 100 µM	> 100 µM	> 100 µM	> 100 µM	> 100			
ClCCc1ccccc1CC1=NCCc2ccccc21	> 100 µM	> 100	46.3 µM	> 100 µM	> 100	> 100	> 100	> 100	39.1	> 100 µM	> 100 µM	> 100 µM	98.9 µM	38.3			
COc1ccc(NS(=O)(=O)c2ccc(N=C3C=C(Nc4ccc(S(=O)(=O)Nc5ccc(OC)nn5)cc4)C(=O)c4ccccc43)cc2)nn1		32	36.2 µM	45.7 µM	30.4		34.1	34.8	33.2	38.6 µM	> 100 µM	32.9 µM	32.6 µM	37.8			
Cc1c(C#N)c(N)n(C2OC(CO)C(O)C(O)C2O)c(=S)c1C#N (stereo not drawn)	> 100 µM	> 100	> 100 µM	> 100 µM	> 100		> 100	> 100	> 100	> 100 µM	> 100 µM	> 100 µM	> 100 µM	> 100		28.8 µM and > 100 µM	

Structure (SMILES)	TGI [1]	TGI [2] [µM]	TGI [3]	TGI [4]	TGI [5] [µM]	TGI [6] [µM]	TGI [7] [µM]	TGI [8] [µM]	TGI [9] [µM]	TGI [10]	TGI [11]	TGI [12]	TGI [13]	TGI [14] [µM]	GI50 [5]	GI50 [9]	GI50 [14] [µM]
C#CCOC(=O)[C@@H](C)c1ccc2cc(OC)ccc2c1	> 100 µM	> 100		> 100 µM	> 100	> 100	> 100	> 100	> 100	> 100 µM	> 100 µM	> 100 µM	> 100 µM	> 100			
CC(C)(C)OC(=O)N1CCC(NC(=O)NC2CCN(C(=O)OC(C)(C)C)CC2)CC1		> 100	> 100 µM	> 100 µM	> 100	> 100	> 100	> 100	> 100	> 100 µM	> 100 µM	> 100 µM	> 100 µM	> 100			
CN(C(=O)c1ccc(Cl)cc1)C(=S)N1CCN(c2ccccc2)CC1	> 100 µM		> 100 µM	> 100 µM	> 100	> 100	> 100	> 100	> 100	> 100 µM	> 100 µM	> 100 µM	> 100 µM	> 100			
COc1ccc(C(=O)N(Cc2cccnc2)C(=S)N(Cc2cccnc2)C(=O)c2ccc(OC)cc2)cc1	> 100 µM	> 100	> 100 µM		> 100	> 100	> 100	> 100	> 100	> 100 µM	> 100 µM	> 100 µM	> 100 µM				
CCNC1=C(NC(=O)CCl)C(=O)c2ccccc2C1=O	> 10 µM	33.7	> 10 µM	> 10 µM		36.4	34.2	38.3		32.8 µM	80.3 µM	74.6 µM					
O=C(N[C@@H](Cc1ccccc1)B(O)O)[C@H](Cc1cccc2ccccc12)NC(=O)N1CCOCC1	0.403 µM and 0.527 µM	0.00208	0.0105 µM and 0.0106 µM	0.07 µM and 0.0754 µM	0.00343	0.00103	0.0155	0.122		0.0226 µM and 0.0268 µM	0.0126 µM	0.0125 µM and 0.0101 µM	0.0119 µM and 0.0391 µM	0.482			0.123
Clc1nc(Nc2nc3ccccc3[nH]2)nc(Cl)c1-c1ccccc1	> 100 µM	> 100	34.9 µM	54.2 µM		> 100	59.6	69.4	55.9	31.1 µM	> 100 µM	35.6 µM	36.9 µM	42.4			
CC(C)C1=CC23CCC4C(C)(C(=O)O)CCCC4(C)C2CC1C1C(=O)N(c2cccc(N4C(=O)C5C6CC7C8(C)CCCC(C)(C(=O)O)C8CCC7(C=C6C(C)C)C5C4=O)c2)C(=O)C13 (stereo not drawn)	22.7 µM	21.3	10.8 µM			15.2	20	22.7	29.9	27.1 µM	45 µM	31.4 µM	80.1 µM	29.1			
CCCCC(N)CSSCC(N)CCCC (stereo not drawn)		31.8	50.8 µM	> 100 µM	32.1		38.1	> 100	36.7	36.1 µM	45.7 µM	58 µM	41.1 µM	47.1			
COc1ccc(/C=C2/SC(c3c(O)ccc4ccccc34)N(NC(=O)CCCCCCCCC(=O)NN3C(=O)/C(=C\c4ccc(OC)c(OC)c4)SC3c3c(O)ccc4ccccc34)C2=O)cc1OC (stereo not drawn)	> 100 µM	> 100	> 100 µM	10.7 µM	12.8	> 100	> 100	20.2	> 41.6	> 100 µM	1.62 µM	> 100 µM	11.2 µM				
NS(=O)(=O)c1nnc(NC(=O)/C=C/C(=O)O)s1	> 100 µM	> 100	> 100 µM		> 100	> 100	> 100	> 100	> 100	> 100 µM	> 100 µM	> 100 µM	> 100 µM	> 100			
C=CCN(c1cc(OC)c2c(c1[N+](=O)[O-])C(C)(SC)C(=O)N2)S(C)(=O)=O (stereo not drawn)	> 100 µM	> 100	> 100 µM	> 100 µM	> 100	> 100		> 100	> 100	> 100 µM	> 100 µM	> 100 µM	> 100 µM	> 100			
O=C1CSC(c2cccc(Oc3ccccc3)c2)N1c1cccc(Cl)c1Cl (stereo not drawn)	> 100 µM	38.5	63.1 µM		34.3	56.1	> 100	45.9	34.9	> 100 µM	53.8 µM	> 100 µM	46.9 µM	> 100			
COc1ccc2[nH]c3c(C)c4ncccc4c(C)c3c2c1	> 10 µM	> 10	6.98 µM	> 10 µM		3.21	> 10	> 10	> 10	> 10 µM	> 10 µM	4.26 µM	> 10 µM				
O=C(c1cccc2cc(O)ccc12)c1cn(CCN2CCOCC2)c2ccccc12	73 µM	38.9	37.1 µM	43.4 µM	39.1		73.5	> 100	25	> 100 µM	> 100 µM	> 100 µM	38.5 µM	71.4			

Reference: PubChem BioAssay (NCI)
